Like-named read-outs stand apart in the source and are kept apart here.
Tests used:
[1] = system: 3D7-strain P. falciparum asexual parasites; test: P. falciparum asexual growth inhibition assay (Pf GIA); assay type: cell-based, Plasmodium falciparum; details: dose response confirmation; read-out: Pf asexual growth inhibition assays IC50
Summary of the method: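 3D7 parasites at 0.25% parasitemia, 2% hematocrit were exposed to compounds in dose response for 72 h at 37°C under 5% CO2, 5% O2. Viability read as parasite LDH activity (nitro blue tetrazolium, A650) after freeze-thaw; inhibition scaled to chloroquine (50 μM) and DMSO controls, mean of three biological replicates.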

HepG2 cells = test: HepG2 cytotoxicity assay; details: for Pb ODA (this manuscript) HepG2 cytoxicity: HepG2 cytotoxicity listed with the Pb ODA data set (this manuscript); for IC50: read-out: HepG2 cytotoxicity assay IC50, dose response confirmation
Summary of the method: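 Cells at 2,500 per well in MEM with 10% fetal bovine serum and 1% NEAA were exposed to test compounds for 48 h at 37°C, 5% CO2. Viability was read by fluorescence, with percent inhibition calculated against 50 μM doxorubicin (positive) and DMSO (negative) controls.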

[2] = system: P. berghei ookinete development; details: for % inhibition, Replicate A / % inhibition, Replicate B: primary screen at 1 μM
[3] = read-out: Pb ODA (this manuscript) IC50, P. berghei ookinete development assay, this manuscript
[4] = read-out: Pb Ookinete development assay IC50, dose response confirmation
[5] = unified HepG2 value across the three screens
[6] = read-out: Pb ODA IC50, this manuscript
[7] = HepG2 values of the three screens unified

| Compound | IC50 [1] [µM] | Pb ODA (this manuscript) HepG2 cytoxicity (HepG2 cells) [µM] | IC50 (HepG2 cells) [µM] | Is compound selective in assay? Pb ODA active? [2] | % inhibition, Replicate A [2] [%] | % inhibition, Replicate B [2] [%] | IC50 [2, 3] [µM] | IC50 [2, 4] [µM] | Unified cytotox (HepG2 cells; [5]) [µM] | Is compound selective in assay? Pb ODA active? ([2]; 1: YES, 0: NO) | IC50 [2, 6] [µM] | HepG2 cytoxicity (Pb ODA, this manuscript) (HepG2 cells) [µM] | Unified cytotox (HepG2 cells; [7]) [µM] |
| --- | --- | --- | --- | --- | --- | --- | --- | --- | --- | --- | --- | --- | --- |
| CS(=O)(=O)Cc1ccc(Nc2ncc(Cl)c(Nc3cccnc3C(N)=O)n2)cc1.Cl [TCMDC-134165] | 0.969 | 100.00 | 100 | 1 (key: 1: YES; 0: NO) | 41.15 | 108.98 | 0.7 | 0.699 | – | – | – | – | – |
| Br.COc1ccc(CCCON2C(=N)N=C(N)NC2(C)C)cc1 [TCMDC-131693] | < 0.0002 | 0.001 | 0.001 | 0 (key: 1: YES; 0: NO) | 23.91 | 55.92 | 5.9 | 5.9 | – | – | – | – | – |
| COc1cc(OC)c(NC(=O)C2c3ccccc3C(=O)N(CC(C)C)C2c2cccs2)cc1Cl (centres unmarked) [TCMDC-124760] | 0.108 | – | 100 | – | 44.76 | 67.88 | – | 8.61 | 100.00 | 1 (1: YES) | 8.61 | – | – |
| O=C(Nc1ccc(OC2CCN(Cc3ccc(F)cc3)C2)c(Cl)c1)c1ccc(F)cc1.O=C(O)C(F)(F)F (centres unmarked) [TCMDC-133763] | 0.878 | – | 24.6 | – | 33.23 | 66.02 | – | 2.95 | 24.55 | 0 (0: NO) | 2.95 | – | – |
| Br.CC1(C)N=C(N)N=C(N)N1OCCc1cccc2ccccc12 [TCMDC-131663] | 0.024 | 0.001 | 0.001 | 0 (key: 1: YES; 0: NO) | 57.64 | 56.80 | 2.71 | 2.71 | – | – | – | – | – |
| CCC(CC)n1cc2c(ccc3nc(N)nc(N)c32)n1 [TCMDC-138019] | 0.06 | 0.0017 | 0.0017 | 0 (key: 1: YES; 0: NO) | 5.46 | 62.28 | 8.22 | 8.22 | – | – | – | – | – |
| C=CCOc1ccc(-c2c(C)[nH]c(C)c(Br)c2=O)cc1 [TCMDC-135042] | 0.226 | 7.08 | 7.08 | 1 (key: 1: YES; 0: NO) | 92.87 | 107.55 | – | 0.7 | – | – | – | – | – |
| CCN(C)C(=O)n1ncc2c3c(N)nc(N)nc3ccc21 [TCMDC-137828] | 0.086 | 0.22 | 0.22 | 0 (key: 1: YES; 0: NO) | 30.59 | 54.76 | 2.56 | 2.56 | – | – | – | – | – |
| CC(ON1C(N)=NC(N)=NC1(C)C)c1ccccc1 (centres unmarked) [TCMDC-131596] | 0.014 | – | 0.0372 | – | 78.80 | 47.07 | – | 5.19 | – | 0 (0: NO) | – | 0.0372 | 0.0372 |
| CSc1ccc(C=CC(=O)NC(=O)c2ccccc2O)cc1 [TCMDC-123758] | 0.179 | – | 73.3 | – | 53.84 | 38.37 | – | 0.526 | 73.28 | 1 (1: YES) | 0.53 | – | – |
| COc1ccc2ncc(F)c(NC(=O)C3CCC(NCc4cc5cc(F)cc(F)c5[nH]4)CC3)c2n1.Cl (centres unmarked) [TCMDC-136455] | 2.43 | 15.49 | 15.5 | 1 (key: 1: YES; 0: NO) | 109.55 | 94.56 | 1.02 | 1.02 | – | – | – | – | – |
| Br.CC1(C)NC(N)=NC(=N)N1OCCCOc1ccccc1Cl [TCMDC-131739] | < 0.0002 | 0.001 | 0.001 | 0 (key: 1: YES; 0: NO) | 73.15 | 48.60 | 3.13 | 3.13 | – | – | – | – | – |
| CCCCCCCCc1c(C)[nH]c(C)c(Cl)c1=O [TCMDC-137538] | 0.102 | – | 4.79 | – | 94.00 | 90.22 | – | 0.131 | 4.79 | 1 (1: YES) | 0.13 | – | – |
| Cc1cc2nc(/N=C(\N)NC(=O)NC3CCCCC3)nc(C)c2cc1C [TCMDC-124528] | 0.396 | 8.51 | 8.51 | 1 (key: 1: YES; 0: NO) | 53.37 | 63.38 | 0.85 | 0.846 | – | – | – | – | – |
| O=C(c1cccs1)N1CCN(c2ccc([N+](=O)[O-])c(NC3CC3)c2)CC1 [TCMDC-123877] | 2.66 | – | 100 | – | 53.49 | 54.36 | – | 1.7 | 100.00 | 1 (1: YES) | 1.7 | – | – |
| Cc1cc2c3c(N)nc(N)nc3ccc2n1C(C)C [TCMDC-137864] | 0.004 | – | 0.0331 | – | 66.13 | 75.37 | – | 2.32 | – | 0 (0: NO) | 2.32 | 0.0331 | 0.0331 |
| Cc1[nH]c(C)c(-c2ccc(Oc3ccc(C(F)(F)F)cc3)cc2)c(=O)c1Br [TCMDC-137406] | 0.133 | – | 5.75 | – | 103.93 | 109.45 | – | 0.127 | – | 1 (1: YES) | 0.13 | 5.75 | 5.75 |
| CC1CN(Cc2ccc(-c3ccc(-c4nc5cc(F)ccc5[nH]4)cc3)cc2)CC(C)O1.O=C(O)C(F)(F)F (centres unmarked) [TCMDC-133831] | 1.22 | 24.55 | 24.6 | 1 (key: 1: YES; 0: NO) | 81.24 | 52.13 | – | 1.18 | – | – | – | – | – |
| CC(C)N1CCN(CCCNc2c3ccccc3nc3ccccc23)CC1.Cl [TCMDC-137547] | 0.518 | – | 14.5 | – | 29.07 | 62.42 | – | 3.71 | – | 0 (0: NO) | 3.71 | 14.45 | 14.45 |
| O=C(NCC1CCCCC1)c1cc(=O)c2ccccc2o1 [TCMDC-123621] | 0.563 | – | 100 | – | 49.08 | 59.87 | – | 1.04 | 100.00 | 1 (1: YES) | – | – | – |
| CCC1=C[C@@H]2CN(C1)Cc1c([nH]c3ccccc13)[C@@](C(=O)OC)(c1cc3c(cc1OC)N(C)[C@H]1[C@@](O)(C(=O)OC)[C@H](O)[C@]4(CC)C=CCN5CC[C@]31[C@@H]54)C2.O=S(=O)(O)O [TCMDC-137769] | 0.213 | – | 41.2 | – | 141.80 | 104.79 | – | 0.365 | 41.21 | 1 (1: YES) | 0.36 | – | – |
| COc1ccc(-c2cnc(N)c(-c3ccc(C(N)=O)cc3)c2)cc1OC [TCMDC-133349] | 0.666 | – | 100 | – | 68.77 | 82.48 | – | 0.426 | 100.00 | 1 (1: YES) | 0.43 | – | – |
| COc1ccc2nccc(N3CCC(NCCNCc4ccc5c(n4)NC(=O)CO5)C3)c2n1.Cl (centres unmarked) [TCMDC-134548] | 0.0014 | – | 42.7 | – | 4.96 | 51.82 | – | 1.62 | 42.66 | 1 (1: YES) | 1.63 | – | – |
| Cc1nc(NC2=NCN(CCCN3CCOCC3)CN2)nc2c(C)cccc12 [TCMDC-125086] | 1.82 | 100.00 | 100 | – | 51.18 | 62.28 | 11.1 | 11.1 | – | – | – | – | – |
| COc1ccc2nccc([C@@H](O)CN3CCC(NCc4cc5ccccc5nc4O)CC3)c2c1.Cl [TCMDC-140759] | 0.431 | – | 49 | – | 50.79 | 52.50 | – | 2.01 | – | 1 (1: YES) | 2.01 | 48.98 | 48.98 |
